Results reported in patent publication US9365583B2, “Substituted pyrazoles and uses thereof” (Genentech, Inc., priority 2013, dated 2016).

Biological target: T1, N-terminally GST-tagged DLK (catalytic domain amino acid 1-520) (Homo sapiens, UniProt Q12852)
T1 construct: N-terminally GST-tagged DLK (catalytic domain amino acid 1-520); purchased Carna Bioscience
T1 sequence (Q12852 1-520): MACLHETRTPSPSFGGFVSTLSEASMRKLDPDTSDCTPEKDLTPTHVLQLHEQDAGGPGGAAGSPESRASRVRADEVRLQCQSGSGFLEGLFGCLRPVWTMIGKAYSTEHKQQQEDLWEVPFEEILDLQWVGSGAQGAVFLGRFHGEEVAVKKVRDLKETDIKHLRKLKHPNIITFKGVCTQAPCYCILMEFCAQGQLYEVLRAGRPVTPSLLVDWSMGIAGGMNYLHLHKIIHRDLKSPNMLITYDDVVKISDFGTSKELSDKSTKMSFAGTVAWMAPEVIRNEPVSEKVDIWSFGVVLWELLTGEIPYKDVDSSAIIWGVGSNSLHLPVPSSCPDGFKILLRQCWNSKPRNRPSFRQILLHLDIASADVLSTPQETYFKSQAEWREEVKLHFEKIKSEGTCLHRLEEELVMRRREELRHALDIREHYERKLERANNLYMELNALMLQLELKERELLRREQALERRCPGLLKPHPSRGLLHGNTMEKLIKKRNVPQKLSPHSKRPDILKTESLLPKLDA
Assay: DLK TR-FRET inhibition assay
Format: biochemical
Settings: 5 nM GST-DLK, 40 nM HIS-MKK4 K131M substrate, 30 μM ATP, 60 minutes at ambient temperature
Summary of the method: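 Phosphorylated MKK4 was quantified by TR-FRET (Eu-labelled anti-phospho-MKK4, D2 anti-HIS; 3 h, 665 and 615 nm emission) after EDTA quench. Reactions held 5 nM GST-tagged DLK catalytic domain (1-520), 40 nM HIS-MKK4 K131M substrate, 30 μM ATP and compound (3-fold series from 20 uM), 60 min, room temperature, pH 7.5.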

Ki [nM]	Molecule
4.19	CC(C)n1nc(-c2cnc3cnn([C@@H](C)c4ccccn4)c3c2)cc1[C@H]1[C@@H]2C[C@H](N3CCOCC3)C[C@@H]21 [compound 34, 4-((1R,3S,5S,6r)-6-(1-isopropyl-3-(1-((S)-1-(pyridin-2-yl)ethyl)-1H-pyrazolo[4,3-b]pyridin-6-yl)-1H-pyrazol-5-yl)bicyclo[3.1.0]hexan-3-yl)morpholine]
2.1	CC(C)n1nc(-c2cnc(N)c(C(F)(F)F)c2)cc1[C@H]1[C@@H]2CC(N3CCN4CCOCC4C3)C[C@@H]21 (single isomer, unassigned) [compound 184]
2.13	CC(C)n1nc(-c2cnc(N)c(SC(F)(F)F)c2)cc1[C@H]1[C@@H]2C[C@@H](N3CCOCC3)C[C@@H]21 [compound 95, 5-(1-isopropyl-5-((1R,3s,5S,6r)-3-morpholinobicyclo[3.1.0]hexan-6-yl)-1H-pyrazol-3-yl)-3-((trifluoro-methyl)thio)pyridin-2-amine]
1.3	Nc1ncc(-c2cc([C@H]3[C@@H]4C[C@H](N5CCOCC5)C[C@@H]43)n(CC3CC3)n2)cc1OC(F)F [compound 274, 5-(1-(cyclopropylmethyl)-5-((1R,3r,5S,6r)-3-morpholinobicyclo [3.1.0]hexan-6-yl)-1H-pyrazol-3-yl)-3-(difluoromethoxy)pyridin-2-amine]
4.51	CC(C)n1nc(-c2cnc(N)c(OC(F)F)c2)cc1[C@H]1[C@@H]2C[C@H](O)C[C@@H]21 [compound 4, (1R,3r,5S,6r)-6-(3-(6-amino-5-(difluoromethoxy)pyridin-3-yl)-1-isopropyl-1H-pyrazol-5-yl) bicyclo[3.1.0]hexan-3-ol]
1.77	5-(1-isopropyl-5-((1R,3r,5S,6R)- 3-((R)-2-methylmorpholino) bicyclo[3.1.0]hexan-6-yl)-1H- pyrazol-3-yl)-3-(trifluoromethoxy) pyridin-2-amine [compound 12]
3.75	CC(C)n1nc(-c2cnc(N)c(OC(F)F)c2)cc1[C@H]1[C@@H]2C[C@H](N3C[C@@H](F)[C@@H](F)C3)C[C@@H]21 [compound 118, 3-(difluoromethoxy)-5-(5-((1R,3r,5S,6R)-3-((3S,4R)-3,4-difluoro-pyrrolidin-1-yl)bicyclo[3.1.0]hexan-6-yl)-1-isopropyl-1H-pyrazol-3-yl)pyridin-2-amine]
> 1600	CC(C)n1nc(-c2cnc(N)c(C(F)(F)F)c2)cc1[C@@H]1[C@@H]2C[C@@H](N3CC(C#N)C3)C[C@@H]21 [compound 124, 1-((1R,3s,5S,6s)-6-(3-(6-amino-5-(trifluoromethyl)pyridin-3-yl)-1-isopropyl-1H-pyrazol-5-yl)bicyclo[3.1.0]hexan-3-yl) azetidine-3-carbonitrile]
5.57	Nc1ncc(-c2cc([C@H]3[C@@H]4C[C@@H](N5CCCOCC5)C[C@@H]43)n(CC(F)F)n2)cc1C(F)(F)F [compound 135, 5-(5-((1R,3s,5S,6r)-3-(1,4-oxazepan-4-yl)bicyclo[3.1.0]hexan-6-yl)-1-(2,2-difluoroethyl)-1H-pyrazol-3-yl)-3-(trifluoromethyl) pyridin-2-amine]
2.8	CC(C)n1nc(-c2cnc(N)c(OC(F)F)c2)cc1[C@H]1[C@@H]2C[C@H]3CN(C)C[C@H]3[C@@H]21 (racemic) [compound 163, (±)-3-(difluoromethoxy)-5-(1-isopropyl-5-((3aS,3bR,4S,4aR,5aR)-2-methyloctahydro-1H-cyclopropa[3,4]cyclopenta[1,2-c]pyrrol-4-yl)-1H-pyrazol-3-yl) pyridin-2-amine]
2.43	CC(C)n1nc(-c2cnc(N)c(OC(F)(F)F)c2)cc1[C@H]1[C@@H]2C[C@@H](N3CCOC[C@@H]3C)C[C@@H]21 [compound 104, 5-(1-isopropyl-5-((1R,3s,5S,6S)-3-((S)-3-methylmorpholino)bicyclo[3.1.0]hexan-6-yl)-1H-pyrazol-3-yl)-3-(trifluoromethoxy) pyridin-2-amine]
2.2	CO[C@H]1C[C@@H]2[C@H](C1)[C@H]2c1cc(-c2cnc(N)c(OC(F)F)c2)nn1C(C)C [compound 187, 3-(difluoromethoxy)-5-(1-isopropyl-5-((1R,3r,5S,6r)-3-methoxy-bicyclo[3.1.0]hexan-6-yl)-1H-pyrazol-3-yl)pyridin-2-amine]
5.4	COCC1(F)CCN(C2C[C@@H]3C(c4cc(-c5cnc(N)c(OC(F)F)c5)nn4C(C)C)[C@@H]3C2)C1 (single isomer, unassigned) [compound 171]
1.57	CO[C@@H]1CCN([C@H]2C[C@@H]3[C@H](C2)[C@H]3c2cc(-c3cnc(N)c(OC(F)(F)F)c3)nn2C(C)C)C1 [compound 22, 5-(1-isopropyl-5-((1R,3r,5S,6R)-3-((R)-3-methoxypyrrolidin-1-yl)bicyclo[3.1.0]hexan-6-yl)-1H-pyrazol-3-yl)-3-(trifluoro-methoxy)pyridin-2-amine]
3.3	CO[C@H]1CCN([C@H]2C[C@@H]3[C@H](C2)[C@H]3c2cc(-c3cnc(N)c(C(F)(F)F)c3)nn2CC(F)F)C1 [compound 145, 5-(1-(2,2-difluoroethyl)-5-((1R,3r,5S,6S)-3-((S)-3-methoxypyrrolidin-1-yl)bicyclo[3.1.0]hexan-6-yl)-1H-pyrazol-3-yl)-3-(trifluoro-methyl)pyridin-2-amine]
1.1	CC(C)n1nc(-c2cnc(N)c(OC(F)(F)F)c2)cc1[C@H]1[C@@H]2C[C@@H](N3CCN(C)C[C@@H]3C)C[C@@H]21 [compound 237, 5-(5-((1R,3s,5S,6S)-3-((S)-2,4-dimethylpiperazin-1-yl)bicyclo [3.1.0]hexan-6-yl)-1-isopropyl-1H-pyrazol-3-yl)-3-(trifluoro-methoxy)pyridin-2-amine]
7.7	CC(C)n1nc(-c2cnc(N)c(OC(F)(F)F)c2)cc1[C@H]1[C@@H]2C[C@H](NCC(F)F)C[C@@H]21 [compound 282, 5-(5-((1R,3r,5S,6r)-3-((2,2-difluoroethyl)amino)bicyclo[3.1.0]hexan-6-yl)-1-isopropyl-1H-pyrazol-3-yl)-3-(trifluoromethoxy) pyridin-2-amine]
65.7	CC(C)n1nc(-c2cnc(N)c(C(F)(F)F)c2)cc1[C@@H]1[C@H]2CC[C@@H](N3CCOCC3)[C@H]21 (single isomer, unassigned) [compound 139, 5-(1-isopropyl-5-(2-morpholinobicyclo[3.1.0]hexan-6-yl)-1H-pyrazol-3-yl)-3-(trifluoromethyl) pyridin-2-amine]
3.48	CC(C)n1nc(-c2cnc(N)c(C(F)(F)F)c2)cc1[C@H]1[C@@H]2C[C@H](N3C[C@@H]4C[C@H]3CO4)C[C@@H]21 [compound 72, 5-(5-((1R,3r,5S,6S)-3-((1S,4S)-2-oxa-5-azabicyclo[2.2.1]heptan-5-yl)bicyclo[3.1.0]hexan-6-yl)-1-isopropyl-1H-pyrazol-3-yl)-3-(trifluoromethyl)pyridin-2-amine]
0.763	CC(C)n1nc(-c2cnc(N)c(OC(F)(F)F)c2)cc1[C@H]1[C@@H]2C[C@H](N3CCN(C)CC3)C[C@@H]21 [compound 64, 5-(1-isopropyl-5-((1R,3r,5S,6r)-3-(4-methylpiperazin-1-yl)bicyclo [3.1.0]hexan-6-yl)-1H-pyrazol-3-yl)-3-(trifluoromethoxy) pyridin-2-amine]
3.97	CC(C)n1nc(-c2cnc(N)c(C(F)(F)F)c2)cc1[C@H]1[C@@H]2C[C@H](N3CCOCC3)C[C@@H]21 [compound 52, 5-(1-isopropyl-5-((1R,3r,5S,6r)-3-morpholinobicyclo[3.1.0]hexan-6-yl)-1H-pyrazol-3-yl)-3-(trifluoromethyl)pyridin-2-amine]
8.52	COCCN1CC2(C[C@@H]3[C@H](C2)[C@H]3c2cc(-c3cnc(N)c(C(F)(F)F)c3)nn2C(C)C)C1 [compound 141, 5-(1-isopropyl-5-((1′R,5′S,6′r)-1-(2-methoxyethyl)spiro[azetidine-3,3′-bicyclo[3.1.0]hexan]-6′-yl)-1H-pyrazol-3-yl)-3-(trifluoromethyl)pyridin-2-amine]
1.3	CC(C)n1nc(-c2cnc(N)c(OC(F)F)c2)cc1[C@H]1[C@@H]2C[C@H](N3CCO[C@H](C)C3)C[C@@H]21 [compound 77, 3-(difluoromethoxy)-5-(1-isopropyl-5-((1R,3r,5S,6R)-3-((R)-2-methylmorpholino)bicyclo[3.1.0]hexan-6-yl)-1H-pyrazol-3-yl) pyridin-2-amine]
1.6	CC(C)n1nc(-c2cnc(N)c(OC(F)F)c2)cc1[C@H]1[C@@H]2C[C@H](N3CCN(C)C[C@@H]3C)C[C@@H]21 [compound 238, 3-(difluoromethoxy)-5-(5-((1R,3r,5S,6S)-3-((S)-2,4-dimethyl-piperazin-1-yl)bicyclo[3.1.0]hexan-6-yl)-1-isopropyl-1H-pyrazol-3-yl)pyridin-2-amine]
